# Measurements from patent publication US20260262643A1, “HERBICIDAL BENZOXAZINES” (FMC CORPORATION, priority 2022, published 2026).
# Experiments:
# blackgrass [1] = assay: Test C preemergence; assay type: in vivo, Alopecurus myosuroides; conditions: preemergence, 0 to 100 scale (0 no effect, 100 complete control)
# In short: (§1)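 Visual injury ratings on a 0–100 scale (100 = complete control) were made against untreated controls 10 days after treatment in the greenhouse. Compounds, formulated with surfactant in non-phytotoxic solvent, were sprayed on soil preemergence or onto one- to two-leaf plants 2–10 cm tall postemergence.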
# oat, wild [2] = assay: Test C preemergence; assay type: in vivo, Avena fatua; conditions: preemergence, 0 to 100 scale (0 no effect, 100 complete control)
# In short: as §1
# corn [3] = assay: Test C preemergence; assay type: in vivo, Zea mays; conditions: preemergence, 0 to 100 scale (0 no effect, 100 complete control)
# In short: as §1
# pigweed, palmer [4] = assay: Test C preemergence; assay type: in vivo, Amaranthus palmeri; conditions: preemergence, 0 to 100 scale (0 no effect, 100 complete control)
# In short: as §1
# wheat [5] = assay: Test C preemergence; assay type: in vivo, Triticum aestivum; conditions: preemergence, 0 to 100 scale (0 no effect, 100 complete control)
# In short: as §1
# kochia [6] = assay: Test C postemergence; assay type: in vivo, Bassia scoparia; conditions: 10 days
# In short: as §1
# sedge, umbrella = assay: Test D flooded paddy test; assay type: in vivo, Cyperus difformis; conditions: 250 g ai/ha, applied to paddy water, visual rating after 13 to 14 days, scale 0 to 100 (0 no effect, 100 complete control)
# In short: (§2)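 Seedlings reached the 2-leaf stage, then pots were flooded to 3 cm over the soil surface. Compound was applied into the water, depth was maintained, and plants stayed in the greenhouse 13 to 14 days before visual scoring (0–100) relative to controls.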
# ragweed [7] = assay: Test C preemergence; assay type: in vivo, Ambrosia artemisiifolia; conditions: preemergence, 0 to 100 scale (0 no effect, 100 complete control)
# In short: as §1
# corn [8] = assay: Test C postemergence; assay type: in vivo, Zea mays; conditions: 10 days
# In short: as §1
# barnyardgrass [9] = assay: Test C postemergence; assay type: in vivo, Echinochloa crusgalli; conditions: 10 days
# In short: as §1
# barnyardgrass [10] = assay: Test C preemergence; assay type: in vivo, Echinochloa crusgalli; conditions: preemergence, 0 to 100 scale (0 no effect, 100 complete control)
# In short: as §1
# green foxtail [11] = assay: Test C preemergence; assay type: in vivo, Setaria viridis; conditions: preemergence, 0 to 100 scale (0 no effect, 100 complete control)
# In short: as §1
# oat, wild [12] = assay: Test C postemergence; assay type: in vivo, Avena fatua; conditions: 10 days
# In short: as §1
# blackgrass [13] = assay: Test C postemergence; assay type: in vivo, Alopecurus myosuroides; conditions: 10 days
# In short: as §1
# kochia [14] = assay: Test C preemergence; assay type: in vivo, Bassia scoparia; conditions: preemergence, 0 to 100 scale (0 no effect, 100 complete control)
# In short: as §1
# horseweed = assay: Test C postemergence; assay type: in vivo, Erigeron canadensis; conditions: 10 days
# In short: as §1
# wheat [15] = assay: Test C postemergence; assay type: in vivo, Triticum aestivum; conditions: 10 days
# In short: as §1
# ryegrass, Italian [16] = assay: Test C postemergence; assay type: in vivo, Lolium multiflorum; conditions: 10 days
# In short: as §1
# soybean [17] = assay: Test C preemergence; assay type: in vivo, Glycine max; conditions: preemergence, 0 to 100 scale (0 no effect, 100 complete control)
# In short: as §1
# pigweed, palmer [18] = assay: Test C postemergence; assay type: in vivo, Amaranthus palmeri; conditions: 10 days
# In short: as §1
# ragweed [19] = assay: Test C postemergence; assay type: in vivo, Ambrosia artemisiifolia; conditions: 10 days
# In short: as §1
# green foxtail [20] = assay: Test C postemergence; assay type: in vivo, Setaria viridis; conditions: 10 days
# In short: as §1
# ducksalad = assay: Test D flooded paddy test; assay type: in vivo, Heteranthera limosa; conditions: 250 g ai/ha, applied to paddy water, visual rating after 13 to 14 days, scale 0 to 100 (0 no effect, 100 complete control)
# In short: as §2
# ryegrass, Italian [21] = assay: Test C preemergence; assay type: in vivo, Lolium multiflorum; conditions: preemergence, 0 to 100 scale (0 no effect, 100 complete control)
# In short: as §1
# rice = assay: Test D flooded paddy test; assay type: in vivo, Oryza sativa; conditions: 250 g ai/ha, applied to paddy water, visual rating after 13 to 14 days, scale 0 to 100 (0 no effect, 100 complete control)
# In short: as §2
# barnyardgrass [22] = assay: Test D flooded paddy test; assay type: in vivo, Echinochloa crus-galli; conditions: 250 g ai/ha, applied to paddy water, visual rating after 13 to 14 days, scale 0 to 100 (0 no effect, 100 complete control)
# In short: as §2
# galium = assay: Test C postemergence; assay type: in vivo, Galium aparine; conditions: 10 days
# In short: as §1
# soybean [23] = assay: Test C postemergence; assay type: in vivo, Glycine max; conditions: 10 days
# In short: as §1
# [24] = 500 g ai/ha, postemergence, 0 to 100 scale (0 no effect, 100 complete control)
# [25] = Postemergence, 125 g ai/ha, 0 to 100 scale (0 no effect, 100 complete control)
# [26] = 125 g ai/ha, postemergence, 0 to 100 scale, 0 no effect, 100 complete control
smiles,measurement,setting,value
COc1ncn(-c2cccc(C(=O)N3C[C@H](C)Oc4c(Cl)cccc43)c2)n1 [Compound 310],Blackgrass plant response rating,blackgrass [1]; 500 g ai/ha,50
same,Blackgrass plant response rating,"blackgrass [1]; Test C, 125 g ai/ha",10
same,"Oat, Wild plant response rating","oat, wild [2]; 500 g ai/ha",60
same,"Oat, Wild plant response rating","oat, wild [2]; Test C, 125 g ai/ha",0
same,Corn plant response rating,corn [3]; 500 g ai/ha,0
same,Corn plant response rating,"corn [3]; Test C, 125 g ai/ha",0
same,"Pigweed, Palmer plant response rating","pigweed, palmer [4]; 500 g ai/ha",100
same,"Pigweed, Palmer plant response rating","pigweed, palmer [4]; Test C, 125 g ai/ha",80
same,Wheat plant response rating,wheat [5]; 500 g ai/ha,0
same,Wheat plant response rating,"wheat [5]; Test C, 125 g ai/ha",0
same,"Plant response rating, Kochia",kochia [6]; [24],90
same,"Plant response rating, Kochia",kochia [6]; [25],70
same,"Plant response rating, Sedge, Umbrella (Flood)","sedge, umbrella",80
same,Ragweed plant response rating,ragweed [7]; 500 g ai/ha,0
same,Ragweed plant response rating,"ragweed [7]; Test C, 125 g ai/ha",0
same,"Plant response rating, Corn",corn [8]; [24],60
same,"Plant response rating, Corn",corn [8]; [25],10
same,"Plant response rating, Barnyardgrass",barnyardgrass [9]; [24],80
same,"Plant response rating, Barnyardgrass",barnyardgrass [9]; [25],20
same,Barnyardgrass plant response rating,barnyardgrass [10]; 500 g ai/ha,80
same,Barnyardgrass plant response rating,"barnyardgrass [10]; Test C, 125 g ai/ha",20
same,"Foxtail, Green plant response rating",green foxtail [11]; 500 g ai/ha,100
same,"Foxtail, Green plant response rating","green foxtail [11]; Test C, 125 g ai/ha",100
same,"Plant response rating, Oat, Wild","oat, wild [12]; [24]",40
same,"Plant response rating, Oat, Wild","oat, wild [12]; [25]",0
same,"Plant response rating, Blackgrass",blackgrass [13]; [24],90
same,"Plant response rating, Blackgrass",blackgrass [13]; [25],50
same,Kochia plant response rating,kochia [14]; 500 g ai/ha,80
same,Kochia plant response rating,"kochia [14]; Test C, 125 g ai/ha",50
same,"Plant response rating, Horseweed",horseweed; [24],30
same,"Plant response rating, Horseweed",horseweed; [25],0
same,"Plant response rating, Wheat",wheat [15]; [24],50
same,"Plant response rating, Wheat",wheat [15]; [25],10
same,"Plant response rating, Ryegrass, Italian","ryegrass, Italian [16]; [24]",80
same,"Plant response rating, Ryegrass, Italian","ryegrass, Italian [16]; [25]",30
same,Soybean plant response rating,soybean [17]; 500 g ai/ha,0
same,Soybean plant response rating,"soybean [17]; Test C, 125 g ai/ha",40
same,"Plant response rating, Pigweed, Palmer","pigweed, palmer [18]; [24]",90
same,"Plant response rating, Pigweed, Palmer","pigweed, palmer [18]; [25]",70
same,"Plant response rating, Ragweed",ragweed [19]; [24],50
same,"Plant response rating, Ragweed",ragweed [19]; [25],30
same,"Plant response rating, Foxtail, Green",green foxtail [20]; [24],50
same,"Plant response rating, Foxtail, Green",green foxtail [20]; [25],50
same,"Plant response rating, Ducksalad (Flood)",ducksalad,75
same,"Ryegrass, Italian plant response rating","ryegrass, Italian [21]; 500 g ai/ha",80
same,"Ryegrass, Italian plant response rating","ryegrass, Italian [21]; Test C, 125 g ai/ha",30
same,"Plant response rating, Rice (Flood)",rice,0
same,"Plant response rating, Barnyardgrass (Flood)",barnyardgrass [22],10
same,"Plant response rating, Galium",galium; [24],90
same,"Plant response rating, Galium",galium; [25],90
same,"Plant response rating, Soybean",soybean [23]; [24],100
same,"Plant response rating, Soybean",soybean [23]; [25],90
Cc1cccc2c1O[C@@H](C)CN2C(=O)c1cccc(-n2cnc(N(C)S(C)(=O)=O)n2)c1 [Compound 299],Blackgrass plant response rating,blackgrass [1]; 500 g ai/ha,70
same,Blackgrass plant response rating,"blackgrass [1]; Test C, 125 g ai/ha",30
same,"Oat, Wild plant response rating","oat, wild [2]; 500 g ai/ha",90
same,"Oat, Wild plant response rating","oat, wild [2]; Test C, 125 g ai/ha",0
same,Corn plant response rating,corn [3]; 500 g ai/ha,30
same,Corn plant response rating,"corn [3]; Test C, 125 g ai/ha",0
same,"Pigweed, Palmer plant response rating","pigweed, palmer [4]; 500 g ai/ha",90
same,"Pigweed, Palmer plant response rating","pigweed, palmer [4]; Test C, 125 g ai/ha",50
same,Wheat plant response rating,wheat [5]; 500 g ai/ha,30
same,Wheat plant response rating,"wheat [5]; Test C, 125 g ai/ha",0
same,"Plant response rating, Kochia",kochia [6]; [26],10
same,"Plant response rating, Kochia",kochia [6]; [24],70
same,"Plant response rating, Sedge, Umbrella (Flood)","sedge, umbrella",25
same,Ragweed plant response rating,ragweed [7]; 500 g ai/ha,100
same,Ragweed plant response rating,"ragweed [7]; Test C, 125 g ai/ha",70
same,"Plant response rating, Corn",corn [8]; [26],10
same,"Plant response rating, Corn",corn [8]; [24],20
same,"Plant response rating, Barnyardgrass",barnyardgrass [9]; [26],10
same,"Plant response rating, Barnyardgrass",barnyardgrass [9]; [24],50
same,Barnyardgrass plant response rating,barnyardgrass [10]; 500 g ai/ha,80
same,Barnyardgrass plant response rating,"barnyardgrass [10]; Test C, 125 g ai/ha",10
same,"Foxtail, Green plant response rating",green foxtail [11]; 500 g ai/ha,100
same,"Foxtail, Green plant response rating","green foxtail [11]; Test C, 125 g ai/ha",60
same,"Plant response rating, Oat, Wild","oat, wild [12]; [26]",20
same,"Plant response rating, Oat, Wild","oat, wild [12]; [24]",60
same,"Plant response rating, Blackgrass",blackgrass [13]; [26],20
same,"Plant response rating, Blackgrass",blackgrass [13]; [24],90
same,Kochia plant response rating,kochia [14]; 500 g ai/ha,80
same,Kochia plant response rating,"kochia [14]; Test C, 125 g ai/ha",0
same,"Plant response rating, Horseweed",horseweed; [26],10
same,"Plant response rating, Horseweed",horseweed; [24],30
same,"Plant response rating, Wheat",wheat [15]; [26],20
same,"Plant response rating, Wheat",wheat [15]; [24],40
same,"Plant response rating, Ryegrass, Italian","ryegrass, Italian [16]; [26]",70
same,"Plant response rating, Ryegrass, Italian","ryegrass, Italian [16]; [24]",90
same,Soybean plant response rating,soybean [17]; 500 g ai/ha,0
same,Soybean plant response rating,"soybean [17]; Test C, 125 g ai/ha",0
same,"Plant response rating, Pigweed, Palmer","pigweed, palmer [18]; [26]",40
same,"Plant response rating, Pigweed, Palmer","pigweed, palmer [18]; [24]",60
same,"Plant response rating, Ragweed",ragweed [19]; [26],0
same,"Plant response rating, Ragweed",ragweed [19]; [24],0
same,"Plant response rating, Foxtail, Green",green foxtail [20]; [26],10
same,"Plant response rating, Foxtail, Green",green foxtail [20]; [24],40
same,"Plant response rating, Ducksalad (Flood)",ducksalad,95
same,"Ryegrass, Italian plant response rating","ryegrass, Italian [21]; 500 g ai/ha",90
same,"Ryegrass, Italian plant response rating","ryegrass, Italian [21]; Test C, 125 g ai/ha",70
same,"Plant response rating, Rice (Flood)",rice,0
same,"Plant response rating, Barnyardgrass (Flood)",barnyardgrass [22],0
same,"Plant response rating, Galium",galium; [26],80
same,"Plant response rating, Galium",galium; [24],90
same,"Plant response rating, Soybean",soybean [23]; [26],60
same,"Plant response rating, Soybean",soybean [23]; [24],100
